For assay [1], the system named is P. aeruginosa PAO1. The assay is described as follows: MIC, CLSI broth microdilution, P. aeruginosa PAO1. The assay is classed as cell-based, Pseudomonas aeruginosa. The procedure:
Antimicrobial Susceptibility Tests. Susceptibility testing was performed in biological triplicate, using the microdilution broth method as outlined by the Clinical and Laboratory Standards Institute. Bacteria were cultured with cation-adjusted Meuller-Hinton broth (Sigma-Aldrich; catalogue number: 90922) or Luria-Bertani (LB) broth (Lennox) in round-bottom 96-well plates (Corning; catalogue number: 3788).
A general note: In broth dilution the organism is exposed to a series of concentrations in liquid medium.

The subject of assay [2] is P. aeruginosa PAO1. The assay is described as follows: NPN outer membrane permeability assay. The assay is classed as cell-based, Pseudomonas aeruginosa. The conditions noted are these: treatment for ten minutes. The text has this:
Further, the fluorescent probe N-phenylnapthylamine (NPN) was used to assess outer membrane permeability changes upon treatment with FA, gentamicin, and FA prodrug. NPN is membrane impermeable and is only weakly fluorescent in aqueous solutions. Upon entry to the cell and interacting with phospholipids, significant fluorescence is observed. […] This residual membrane depolarizing antibacterial activity can be observed in the FA polyamine (FIG. 4a) and the diacylated compound (Table 9).

These results are taken from patent publication US20260240869A1, “ANTIPSEUDOMONAL FUSIDIC ACID COMPOUNDS” (priority 2022, published 2026).

With Gentamicin, the “Fold change (MIC)” value in assay [1] (5 mM MgCl2/CAMH versus CAMH (Table 10)) is 32X. Moreover, the MIC P. aeruginosa PAO1, CAMH in assay [1] (CAMH (Table 10)) stood at 0.25 mg/L. Further, the “shift in MIC on co-treatment with 5 mM MgCl2” value in assay [1] (P. aeruginosa PAO1) is recorded as 32 -fold. For the same substance, the “MIC P. aeruginosa PAO1, 5 mM MgCl2/CAMH” value in assay [1] (co-treatment 5 mM MgCl2 in CAMH (Table 10)) turned out to be 8. Also, in assay [2], the “NPN fluorescence (outer membrane permeability)” value is on record as “dose-dependent increase”.
